Results taken from publication PMC9597602, “Metal Complexes as Antifungals? From a Crowd-Sourced Compound Library to the First In Vivo Experiments” (JACS Au, 2022).
“Also recorded” adds a separate entry of the source. Like-named read-outs stand apart in the source and are kept apart here.

Assays:
[1] = system: Candida albicans ATCC 90028 NCCLS11; assay: Antifungal MIC assay; format: cell-based; settings: Candida albicans, ATCC90028, comparator antifungals, read-out: MIC* Candida albicans ATCC 90028
Method in brief: (§1)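 Colonies from 3-day YPD plates (30 °C) were suspended, diluted into YNB and added to compound plates at a final density of 2.5 × 10^3 CFU/mL. After 36 h at 35 °C without agitation, growth inhibition of ≥80% defined the MIC. Two technical replicates, 2–4 independent runs.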

[2] = system: Cryptococcus neoformans H99 ATCC 208821 type strain; assay: Antifungal MIC assay; format: cell-based; settings: for MIC: Cryptococcus neoformans, ATCC208821, comparator antifungals, read-out: MIC* Cryptococcus neoformans ATCC 208821
Method in brief: as §1

C. albicans (ATCC 90028) [3] = assay: Galleria mellonella infection (log CFU reduction) assay; format: in vivo, Candida albicans in Galleria mellonella larvae; settings: 1 mM, 10 μL; Pt1 19 mg/kg, Pt2 28 mg/kg, fluconazole 12 mg/kg; 24 h at 37 °C; vs 10% DMSO control
Description: To quantify the possible protective effect of Pt1 and Pt2 in G. mellonella challenged with C. albicans, we conducted a CFU reduction assay with these compounds. Briefly, G. mellonella larvae were inoculated with C. albicans (ATCC 90028) and incubated for 2 h at 37 °C. The larvae were then injected with 10 μL of the corresponding compound solution (1 mM) or control (same concentration and injection volume) and incubated for 24 h at 37 °C. The larvae were then anesthetized, macerated, and serially diluted onto SDA (Sabouraud dextrose agar) plates. After 48 h of incubation, the CFUs were counted.
A log CFU reduction assay was conducted for two compounds and two control groups. […] Fluconazole (1 mM) and 10% DMSO were used once again as the control groups. Fifteen G. mellonella larvae (200–250 mg) per test group were selected and inoculated with 10 μL of C. albicans at a concentration of 5 × 10^7 cells/mL and incubated on 90 mm Petri dishes in groups of five larvae for 2 h at 37 °C. Larvae were then subsequently injected with 10 μL of the corresponding test compound or control and returned to Petri dishes to incubate for 24 h at 37 °C.
Larvae were then anesthetized on ice for 5 to 10 min before being placed in individual prefilled 2 mL tubes with 3.0 mm diameter zirconium beads with 1000 μL of PBS. They were then macerated briefly using the BeadBug 6 Homogenizer (Benchmark Scientific, USA) in two 45 s intervals at 4350 rpm. After homogenization, serial dilutions of 1:100, 1:1000, and 1:10,000 were then made for each larva/tube, and 100 μL of the dilution was spread plated onto SDA plates with 50 μg/mL chloramphenicol. Plates were then incubated at 27 °C for 48 h before CFUs were counted.
A one-way ANOVA was conducted to compare the CFU counts for Pt1, Pt2, and both controls. After a significant difference was observed between the groups, a subsequent Tukey’s pairwise test was used to compare the individual test groups with each other.

[4] = system: Candida auris CBS12373 KCTC 17810; assay: Antifungal MIC assay, extended panel; format: cell-based; settings: for MIC: read-out: MIC* Candida auris CBS12373
Method in brief: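 Yeast was grown for 3 days at 30 °C on YPD agar. Five colonies were suspended to 1 × 10^6 to 5 × 10^6 CFU/mL, checked by OD530, diluted in YNB medium, and dispensed onto compound-loaded 384-well NBS plates at 2.5 × 10^3 CFU/mL in 50 μL. Plates were covered and incubated without shaking at 35 °C for 36 h to determine MIC.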

[5] = system: Candida auris CBS10913 JCM 15448; assay: Antifungal MIC assay, extended panel; format: cell-based; settings: for MIC: read-out: MIC* Candida auris CBS10913
Method in brief: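 Yeast strains were grown on YPD agar at 30 °C for 3 days. Five colonies were suspended to 1 × 10^6 to 5 × 10^6 CFU/mL (by OD530), diluted in YNB medium, and dispensed into compound-containing 384-well NBS plates to 2.5 × 10^3 CFU/mL in 50 μL. Covered plates were held at 35 °C for 36 h without shaking, and MIC was determined by broth dilution.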

C. albicans (ATCC 90028) [6] = assay: Galleria mellonella infection (survival) assay; format: in vivo, Candida albicans in Galleria mellonella larvae; settings: G. mellonella inoculated with C. albicans, 10 μL compound solution, 5 days, vs untreated control
Description: In an initial survival assay, G. mellonella larvae were inoculated with C. albicans (ATCC 90028). The larvae were then injected with 10 μL of the compound solution, and their survival was monitored for the next 5 days. Fluconazole and 10% DMSO injections were used as controls.
The globally available strains for C. albicans and C. neoformans, namely, ATCC 90028 and H99, respectively, were used to assess the antifungal potential of the panel of cobalt complex compounds in the G. mellonella insect model. Each strain was cultured on Sabouraud dextrose agar (SDA) for 24–48 h at 27 °C prior to inoculation. Yeast colonies were then suspended in a phosphate-buffered saline solution (PBS), and cells’ concentrations were adjusted using a Neubauer counting chamber to 5 × 10^7 cells for ATCC 90028 and 1 × 10^8 cells for H99. Compounds were prepared by dissolving in 100% dimethylsulfoxide (DMSO) to 4 or 10 mM depending on compound solubility before being further diluted with water to 0.4 or 1 mM for injection into larvae.
Each group of larvae was subsequently incubated at 37 °C for 2 h in 90 mm Petri dishes. After incubation, larvae were injected with 10 μL of the compound into the last right pro-leg and returned to Petri dishes to incubate at 37 °C for 5 days. In addition to the panel of metal compounds, fluconazole (FLC) was included as a positive control (1 and 0.4 mM) and reference antifungal. Larvae inoculated with just the fungal strains and the fungal strains with 10% DMSO were also included as comparison groups. Larvae injected concurrently with PBS instead of fungal inoculum and compounds were used as negative controls. All larvae were checked daily for survival.

human red blood cells = format: cell-based
Method in brief: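 Washed human erythrocytes at 0.5 × 10^8 cells/mL incubated with compound, then centrifuged. Haemolysis read as supernatant OD405, normalised to untreated cells (0%) and 1% Triton X-100 (100%), with melittin as internal plate control.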

G. mellonella larvae = assay: Galleria mellonella in vivo toxicity assay; settings: 10 μL of the highest concentration injected, monitored 6 days
Description: Based on criteria of overall antifungal activity, cytotoxicity, and hemolysis as well as compound availability, we selected compounds Co1, Ag2, Eu1, Ir1, Pt1, Pt2, Pt4, Pt5, Au1, Au2, and Au4 to conduct a preliminary in vivo toxicity assay. […] The compounds were dissolved in DMSO and diluted to the highest possible final concentration (Table 3). The larvae were then monitored for 6 days for survival and health using the G. mellonella Health Index Scoring System.[111] […] For the other compounds, no detrimental effects could be observed in the larvae over the monitoring period. […] Nevertheless, factors such as the metabolism, excretion, and/or accumulation of the various metal complexes and their metabolites will still need to be studied more rigorously in rodent models if they are to be advanced into the preclinical pipeline.
The toxicity of compounds was tested in vivo using the G. mellonella model using our previously described methods,[61] Briefly, G. mellonella larvae were reared in a controlled environmental room at Macquarie University, Sydney, Australia, at 30 °C and 65% humidity with a 12-h light/dark cycle. Larvae (200–250 mg) were individually injected with 10 μL of chemical into the last right pro-leg using a 100 μL syringe (Hamilton Ltd.). Each compound was dissolved in DMSO at the maximum concentration given in Table 3 and also diluted in water to final concentrations of 100, 10, and 1 μM. We injected five larvae in triplicate for each of the four dilutions for each compound. Larvae injected with different dilutions of DMSO (10^–1, 10^–2, and 10^–3) were included as negative controls. Following injection, the larvae were incubated at 30 °C and monitored every 24 h for 6 days. Larval performance was assessed according to the G. mellonella Health Index Scoring System.[111] The experiments were repeated over three separate days for biological triplicates.

[7] = system: Cryptococcus deuterogattii CBS7750 VGII; Serotype B; assay: Antifungal MIC assay, extended panel; format: cell-based; settings: extended panel, second batch; ≥80 or ≥50% inhibition
Method in brief: as §1

[8] = system: Cryptococcus deuterogattii ATCC 32609 VGII; assay: Antifungal MIC assay, extended panel; format: cell-based; settings: extended panel, second batch; ≥80 or ≥50% inhibition
[9] = system: Candida glabrata ATCC 90030 NCCLS 84; assay: Antifungal MIC assay, extended panel; format: cell-based; settings: extended panel, second batch; ≥80 or ≥50% inhibition
Method in brief: as §1

[10] = system: Candida tropicalis ATCC 750; assay: Antifungal MIC assay, extended panel; format: cell-based; settings: extended panel, second batch; ≥80 or ≥50% inhibition
Method in brief: as §1

[11] = system: Candida glabrata ATCC 90030 NCCLS 84; assay: Antifungal MIC assay, extended panel; format: cell-based; settings: extended panel; 50% inhibition, MIC score 2
[12] = system: Cryptococcus deuterogattii ATCC 32609 VGII; assay: Antifungal MIC assay, extended panel; format: cell-based; settings: extended panel; 50% inhibition, MIC score 2
[13] = system: Cryptococcus deuterogattii CBS7750 VGII; Serotype B; assay: Antifungal MIC assay, extended panel; format: cell-based; settings: extended panel; 50% inhibition, MIC score 2
[14] = system: Candida tropicalis ATCC 750; assay: Antifungal MIC assay, extended panel; format: cell-based; settings: extended panel; 50% inhibition, MIC score 2
[15] = system: HEK-293 human embryonic kidney cells ATCC CRL-1573
Description: The cells were incubated together with the compounds for 20 h at 37 °C in 5% CO2. […] Tamoxifen (Sigma T5648) was used as internal control on each plate.

[16] = system: Escherichia coli ATCC 25922 FDA control strain; assay: CO-ADD antibacterial MIC assay; format: cell-based; settings: initial CO-ADD dose-response screening; ≥80% growth inhibition
Method in brief: (§2)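 CAMHB broth microdilution; inoculum 5 × 10^5 CFU/mL from mid-log culture; 37 °C 18 h static; OD600 read-out; MIC at ≥80% inhibition; colistin (Gram-negative) and vancomycin (Gram-positive) internal controls.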

[17] = system: Acinetobacter baumannii ATCC 19606 type strain; assay: CO-ADD antibacterial MIC assay; format: cell-based; settings: initial CO-ADD dose-response screening; ≥80% growth inhibition
Method in brief: as §2

[18] = system: Pseudomonas aeruginosa ATCC 27853 QC control strain; assay: CO-ADD antibacterial MIC assay; format: cell-based; settings: initial CO-ADD dose-response screening; ≥80% growth inhibition
Method in brief: as §2

[19] = ≥80% inhibition, converted with MW of Table S12
[20] = Candidozyma auris, comparator antifungals, MIC = ≥80% inhibition
[21] = Candidozyma auris, comparator antifungals, ≥80% inhibition, converted with MW of Table S12
[22] = extended panel, second batch, ≥80 or ≥50% inhibition
[23] = extended panel, 50% inhibition, MIC score 2

Structure (SMILES): OC(Cn1cncn1)(Cn1cncn1)c1ccc(F)cc1F [Fluconazole, reference compound]
- MIC ([1]; MIC = ≥80% inhibition): 0.004 µg/mL
- MIC [1, 19]: 0.018 µM
- MIC ([2]; MIC = ≥80% inhibition): 2 to 4 µg/mL
- MIC [2, 19]: 9.25 to 18.5 µM
- reduction in CFUs (C. albicans (ATCC 90028) [3]): 1.1 log10
- MIC [4, 20]: ≤ 0.004 µg/mL
- MIC [4, 21]: ≤ 0.018 µM
- MIC [5, 20]: ≤ 0.004 µg/mL
- MIC [5, 21]: ≤ 0.018 µM
- larva survival (C. albicans (ATCC 90028) [6]): significant larva survival

Structure (SMILES): c1ccc([PH]([Au][S]c2ccccn2)(c2ccccc2)c2ccccc2)cc1 [Au2]
- RBC HC10 (human red blood cells; initial CO-ADD screening, 1 h, 10% hemolysis): >32 µg/mL
- RBC HC10 (human red blood cells; ranges obtained upon retesting, new batch): > 200 µM
- MIC Cryptococcus neoformans ATCC 208821 [2, 22]: 0.024 to 0.195 µM
- MIC50 Cryptococcus neoformans ATCC 208821 [2, 23]: 0.024 to 0.195 µM
- toxicity (G. mellonella larvae): showed signs of toxicity; also recorded: toxic at 1 mM
- MIC [7]: 0.098 µM
- MIC Cryptococcus deuterogattii ATCC 32609 [8]: 0.049 to 0.391 µM
- MIC [9]: >200 µM
- MIC [10]: >200 µM
- MIC50 Candida glabrata ATCC 90030 [11]: > 200 µM
- MIC50 Cryptococcus deuterogattii ATCC 32609 [12]: 0.049 to 0.195 µM
- MIC50 Cryptococcus deuterogattii CBS7750 [13]: 0.049 to 1.56 µM
- MIC50 Candida tropicalis ATCC 750 [14]: ≥ 200 µM
- HEK CC50 ([15]; initial CO-ADD screening, 20 h): >32 µg/mL
- CC50 ([15]; read-out: HEK293 CC50, ranges obtained upon retesting, new batch): 0.8 to 200 µM
- MIC [4, 22]: 0.195 µM
- MIC50 Candida auris CBS12373 [4, 23]: 0.098 to 0.195 µM
- MIC [5, 22]: 0.195 µM
- MIC50 Candida auris CBS10913 [5, 23]: 0.098 to 1.56 µM
- MIC Ec [16]: >32 µg/mL
- MIC Ab [17]: >32 µg/mL
- MIC Pa [18]: >32 µg/mL
